Assay results published in patent publication US5543415A, “Antidepressants” (Kyowa Hakko Kogyo Co., Ltd., priority 1992, dated 1996).
Like-named read-outs stand apart in the source and are kept apart here.

What was measured:
ddY-strain male mice = assay: Acute Toxicity Test (minimum lethal dose, oral); type: in vivo; details: seven days after administration
Description: Test compounds were orally administered to groups of ddY-strain male mice weighing 20±1 g, each group consisting of three mice. Seven days after the administration, minimum lethal dose (MLD) of each compound was determined by observing the mortality.

[1] = test system: clonidine-induced aggressive behavior; assay: Effect on Clonidine-Induced Aggressive Behavior (number of biting attacks during 30 minutes); type: in vivo, male ddY mice; details: po; for Number of the Biting Attacks (mean ± S.E.M.), Test Compound-Treated Group: 60 min before clonidine 20 mg/kg ip, 30 min count
Description: The effect of a test compound on the aggressive behavior induced by intraperitoneal administration of clonidine was investigated. […] The experiment was performed by using several groups of male ddY mice (weighing 20 to 25 g, Japan SLC), each group consisting of two mice. The test compound was suspended in injectable distilled water (Otsuka Pharmaceutical Co., Ltd.) containing Tween 80 [polyoxyethylene (20) sorbitan monooleate]. Clonidine hydrochloride (Sigma Co.) was dissolved in physiological saline solution (Otsuka Pharmaceutical Co., Ltd.). The test compound suspension and the control suspension were orally administered to separate groups of the mice (0.1 ml per 10 g of body weight). Sixty minutes after the oral administration of the test compound, clonidine hydrochloride (20 mg/kg) was intraperitoneally injected. The number of biting attacks during 30 minutes after clonidine treatment was counted. The effect of the compound was evaluated by comparing the average number of biting attacks of the test compound-administered groups with that of control groups (Statistical comparison: Student's t-test).

[2] = Mus musculus, 10 mg/kg, read-out: Number of the Attacks of Test Compound-Treated Group/Number of the Attacks of Control Group
[3] = Mus musculus, 2.5 mg/kg, read-out: Number of the Attacks of Test Compound-Treated Group/Number of the Attacks of Control Group
[4] = Mus musculus, read-out: Number of the Attacks of Test Compound-Treated Group/Number of the Attacks of Control Group

Structure (SMILES)	MLD (minimum lethal dose) (ddY-strain male mice) [mg/kg]	Number of the Biting Attacks (mean ± S.E.M.), Test Compound-Treated Group ([1]; 10 mg/kg)	further results
CCn1c(=O)c2c(nc(/C=C/c3ccc(OCc4ccccc4)cc3)n2C)n(CC)c1=O [Compound 185, (E)-8-(4-Benzyloxystyryl)-1,3-diethyl-7-methylxanthine]	> 100	46.9 ± 14.00	response vs control in vivo at 10 mg/kg [1, 2]: 620%
CCCn1c(=O)c2c(nc(/C=C/c3ccccc3)n2C)n(CCC)c1=O [Compound 3, (E)-7-Methyl-1,3-dipropyl-8-styrylxanthine]	> 300	26.1 ± 5.42	response vs control in vivo at 10 mg/kg [1, 2]: 340%
CCn1c(=O)c2c(nc(/C=C/c3ccc(OC)c(Br)c3)n2C)n(CC)c1=O [Compound 114, (E)-8-(3-Bromo-4-methoxystyryl)-1,3-diethyl-7-methylxanthine]	> 100	37.8 ± 8.66	
CCCOc1ccc(/C=C/c2nc3c(c(=O)n(CC)c(=O)n3CC)n2C)cc1 [Compound 126, (E)-1,3-Diethyl-7-methyl-8-(4-propoxystyryl)xanthine]	> 300	80.0 ± 13.93	
CCCn1c(=O)c2c(nc(/C=C/c3ccc(OC)c(C)c3C)n2C)n(CCC)c1=O [Compound 14, (E)-8-(4-Methoxy-2,3-dimethylstyryl)-7-methyl-1,3-dipropylxanthine]	> 300		Number of the Biting Attacks (mean ± S.E.M.), Test Compound-Treated Group ([1]; 2.5 mg/kg): 40.7 ± 8.50; response vs control in vivo at 2.5 mg/kg [1, 3]: 730%
CCCn1c(=O)c2c(nc(/C=C/c3ccc(OC)cc3)n2C)n(CCC)c1=O [Compound 6, (E)-8-(4-Methoxystyryl)-7-methyl-1,3-dipropylxanthine]	> 300	83.7 ± 10.95	
CCn1c(=O)c2c(nc(/C=C/c3cccc(F)c3C)n2C)n(CC)c1=O [Compound 181, (E)-1,3-Diethyl-8-(3-fluoro-2-methylstyryl)-7-methylxanthine]	> 100	49.5 ± 9.09	response vs control in vivo at 10 mg/kg [1, 2]: 800%
CCn1c(=O)c2c(nc(/C=C/c3ccc(C)cc3)n2C)n(CC)c1=O [Compound 152, (E)-1,3-Diethyl-7-methyl-8-(4-methylstyryl)xanthine]	> 100	82.6 ± 23.07	response vs control in vivo at 10 mg/kg [1, 2]: 670%
CCCn1c(=O)c2c(nc(/C=C/c3cc(OC)c(OC)c(OC)c3)n2C)n(CCC)c1=O [Compound 5, (E)-7-Methyl-1,3-dipropyl-8-(3,4,5-trimethoxystyryl)xanthine]	> 300		Number of the Biting Attacks (mean ± S.E.M.), Test Compound-Treated Group ([1]; 5 mg/kg): 25.4 ± 7.71; response vs control in vivo at 5 mg/kg ([1]; Mus musculus, 5 mg/kg, read-out: Number of the Attacks of Test Compound-Treated Group/Number of the Attacks of Control Group): 350%
CCn1c(=O)c2c(nc(/C=C/c3ccc(OC)c(C)c3C)n2C)n(CC)c1=O [Compound 82, (E)-1,3-Diethyl-8-(4-methoxy-2,3-dimethylstyryl)-7-methylxanthine]	> 300	61.8 ± 11.89	Number of the Biting Attacks (mean ± S.E.M.), Test Compound-Treated Group ([1]; 2.5 mg/kg): 59.0 ± 13.31; response vs control in vivo at 2.5 mg/kg [1, 4]: 910%; response vs control in vivo at 10 mg/kg [1, 2]: 800%
CCCn1c(=O)c2c(nc(/C=C/c3ccc(OC)c(OC)c3)n2C)n(CCC)c1=O [Compound 1, (E)-8-(3,4-Dimethoxystyryl)-7-methyl-1,3-dipropylxanthine]	> 300		Number of the Biting Attacks (mean ± S.E.M.), Test Compound-Treated Group ([1]; 2.5 mg/kg): 27.5 ± 7.3; response vs control in vivo at 2.5 mg/kg [1, 3]: 480%
CCn1c(=O)c2c(nc(/C=C/c3cc(OC)c4c(c3)OCO4)n2C)n(CC)c1=O [Compound 179, (E)-1,3-Diethyl-8-(3-methoxy-4,5-methylenedioxystyryl)7-methylxanthine]	> 100	67.7 ± 16.08	
CCCn1c(=O)c2c(nc(/C=C/c3ccc(OC)c(OC)c3OC)n2C)n(CCC)c1=O [Compound 22, (E)-7-Methyl-1,3-dipropyl-8-(2,3,4-trimethoxystyryl)xanthine]	> 300	33.1 ± 5.18	response vs control in vivo at 10 mg/kg [1, 2]: 680%
Cn1c(=O)c2[nH]cnc2n(C)c1=O [theophylline, reference compound]		18.6 ± 3.58	response vs control in vivo at 10 mg/kg [1, 4]: 520%
CCn1c(=O)c2[nH]c(/C=C/c3ccc(-c4ccccc4)cc3)nc2n(CC)c1=O [Compound 170, (E)-1,3-Diethyl-8-(4-phenylstyryl)xanthine]	> 100		
CCn1c(=O)c2[nH]c(/C=C/c3ccc(F)c(F)c3)nc2n(CC)c1=O [Compound 111, (E)-8-(3,4-Difluorostyryl)-1,3-diethylxanthine]	> 300		
CCCCn1c(=O)c2c(nc(/C=C/c3cc(OC)c(OC)c(OC)c3)n2C)n(CCCC)c1=O [Compound 9, (E)-1,3-Dibutyl-7-methyl-8-(3,4,5-trimethoxystyryl)xanthine]	> 300		

Structure (SMILES)	MLD (minimum lethal dose) (ddY-strain male mice) [mg/kg]	Number of the Biting Attacks (mean ± S.E.M.), Test Compound-Treated Group ([1]; 10 mg/kg)	further results
CCCn1c(=O)c2c(nc(/C=C/c3cc(OC)c(OCc4ccccc4)c(OC)c3)n2C)n(CCC)c1=O [Compound 28, (E)-8-(4-Benzyloxy-3,5-dimethoxystyryl)-7-methyl-1,3-dipropylxanthine]	> 100		
COc1ccc(/C=C/c2nc3c(c(=O)n(C)c(=O)n3C)n2C)c(OC)c1 [Compound 100, (E)-8-(2,4-Dimethoxystyryl)caffeine]	> 300		
COc1ccc(/C=C/c2nc3c([nH]2)c(=O)n(C)c(=O)n3C)c(C)c1C [Compound 93, (E)-8-(4-Methoxy-2,3-dimethylstyryl)theophylline]	> 100		
COc1cc(C)c(/C=C/c2nc3c(c(=O)n(C)c(=O)n3C)n2C)cc1C [Compound 102, (E)-8-(4-Methoxy-2,5-dimethylstyryl)caffeine]	> 100		
C=CCn1c(=O)c2[nH]c(/C=C/c3ccc(OC)c(OC)c3)nc2n(CC=C)c1=O [Compound 69, (E)-1,3-Diallyl-8-(3,4-dimethoxystyryl)xanthine]	> 100		
CCCn1c(=O)c2c(nc(/C=C\c3ccc(OC)c(OC)c3)n2C)n(CCC)c1=O [Compound 65, (Z)-8-(3,4-Dimethoxystyryl)-7-methyl-1,3-dipropylxanthine]	> 300		
CCCCOc1ccc(/C=C/c2nc3c([nH]2)c(=O)n(CC)c(=O)n3CC)cc1 [Compound 147, (E)-8-(4-Butoxystyryl)-1,3-diethylxanthine]	> 100		
Cn1c(=O)c2c(nc(/C=C/c3ccc4c(c3)OCO4)n2C)n(C)c1=O [Compound 96, (E)-8-(3,4-Methylenedioxystyryl)caffeine]	> 300		
COc1cccc(/C=C/c2nc3c(=O)n(C)c(=O)n(C)c3[nH]2)c1OC [Compound 97, (E)-8-(2,3-Dimethoxystyryl)theophylline]	> 100		
CCCn1c(=O)c2[nH]c(/C=C/c3ccc(OC)cc3OC)nc2n(CCC)c1=O [Compound 25, (E)-8-(2,4-Dimethoxystyryl)-1,3-dipropylxanthine]	> 100		
CCCn1c(=O)c2c(nc(/C=C/c3cc(OC)c(OC)cc3Br)n2C)n(CCC)c1=O [Compound 59, (E)-8-(2-Bromo-4,5-dimethoxystyryl)-7-methyl-1,3-dipropylxanthine]	> 300		
CCCn1c(=O)c2c(nc(/C=C/c3cccc(OC)c3OC)n2C)n(CCC)c1=O [Compound 30, (E)-8-(2,3-Dimethoxystyryl)-7-methyl-1,3-dipropylxanthine]	> 300		
CCn1c(=O)c2c(nc(/C=C/c3ccc(O)c(C)c3C)n2C)n(CC)c1=O [Compound 194, (E)-1,3-Diethyl-8-(4-hydroxy-2,3-dimethylstyryl)-7-methylxanthine]	> 100		
CCn1c(=O)c2c(nc(/C=C/c3cccc(OC)c3)n2C)n(CC)c1=O [Compound 140, (E)-1,3-Diethyl-8-(3-methoxystyryl)-7-methylxanthine]	> 300		
CCn1c(=O)c2[nH]c(/C=C/c3cccc(F)c3)nc2n(CC)c1=O [Compound 127, (E)-1,3-Diethyl-8-(3-fluorostyryl)xanthine]	> 100		
CCn1c(=O)c2[nH]c(/C=C/c3ccc(C)cc3)nc2n(CC)c1=O [Compound 151, (E)-1,3-Diethyl-8-(4-methylstyryl)xanthine]	> 100		
CCn1c(=O)c2[nH]c(/C=C/c3ccc(OC)c(C)c3)nc2n(CC)c1=O [Compound 174, (E)-1,3-Diethyl-8-(4-methoxy-3-methylstyryl)xanthine]	> 100		
